Laboratory results published in US20060058312A1, “Stabilized aqueous preparation for injection” (priority 2004, published 2006).
Read-outs that look alike come from different tables or passages of the source.

Format: physicochemical
Details: buffer, 13 mg/mL, pH 6.2
Procedure: For the aqueous preparations obtained in (1) to (3) above, tests evaluating stability at 60° C./3 weeks were performed. The calcium levofolinate content remaining in the aqueous solution was measured using high performance liquid chromatography under the following conditions (the same were employed in the following experiments) 2 ml each of the test preparations were weighed, and 10 ml of the internal standard solution described below (the same was employed in the following experiments) were added thereto. Subsequently, water was added to adjust the total volume of the solution to 50 ml, thereby to prepare a test solution. Meanwhile, 62.5 mg of calcium levofolinate were dissolved in water so as to prepare a 25 ml solution. Then, to 10 ml of the resultant solution were added 10 ml of the internal standard solution, and the total volume of the solution was adjusted to 50 ml by adding water, thereby to prepare a standard solution. For 20 μl of the standard solution and the test solution, the content of calcium levofolinate was measured by the liquid chromatography method under the following conditions.
1) Measurement Conditions • Detector: Ultraviolet absorptiometer (Measurement wavelength: 254 nm) • Column: A stainless tube having an internal diameter of 4.0 mm and a length of 15 cm was filled with 5 μm of octadecylsilylated silica gel for liquid chromatography. • Column temperature: A constant temperature near 45° C. • Mobile phase: The pH value of a mixed test solution containing 0.008 mol/L of disodium hydrogen phosphate solution/methanol/40% aqueous tetrabutylammonium hydroxide solution (385:110:1.3 (volume ratio)) was adjusted to 7.5 by adding phosphoric acid. • Flow rate: The flow rate was regulated so that the retention time of calcium levofolinate became about 10 minutes. • Internal standard solution: A solution prepared by adding water to 0.04 g of methyl parahydroxybenzoate so that the whole amount of solution is 100 ml.
About 1100 ml of water for injection were added to a beaker. Then, 8.04 g of sodium chloride, 3.6 g of tromethamine, 3.6 g of ascorbic acid, and 1.2 g of sodium pyrosulfite were added thereto with bubbling of nitrogen gas, and the components were dissolved with stirring. To the resultant solution were added 15.62 g of calcium levofolinate, which were dissolved with stirring. Thereafter, the pH value of the solution was adjusted to 6.2 by adding 5% hydrochloric acid solution dropwise. Water for injection was further added to the solution to adjust the total volume to 1200 ml. Subsequently, the bubbling of nitrogen gas was stopped, and the solution was filtered with a filtration filter, thereby to yield a solution for injection. A 5 ml-syringe made of polypropylene, the inside space of which had been substituted by nitrogen gas, was filled with 5 ml of the resultant solution for injection, followed by steam sterilization under high pressure at 105° C. for 30 minutes. The thus-sterilized syringe was packaged together with a deoxidant, AGELESS ZP-50 (trade name, Mitsubishi Gas Chemical Company, Inc. Japan) by using a plastic film with high air impermeability.
For an aqueous preparation as obtained above, a stability test (60° C./75% RH, and 40° C./75% RH) was performed by measuring the content of calcium levofolinate remaining after storage for a certain period by the high performance liquid chromatography method.

remaining ratio (%) of calcium levofolinate (0 months): 100%
remaining ratio (%) of calcium levofolinate (0 weeks): 100%
remaining ratio (%) of calcium levofolinate (1 month): 101.2%
remaining ratio (%) of calcium levofolinate (2 months): 100.2%
remaining ratio (%) of calcium levofolinate (4 months): 95.7%
remaining ratio (%) of calcium levofolinate (6 months): 92.8%
remaining ratio (%) of calcium levofolinate (168 h): 99.0%
remaining ratio (%) of calcium levofolinate (336 h): 97.5%
remaining ratio (%) of calcium levofolinate (504 h): 95.8%
remaining ratio (%) of calcium levofolinate (672 h): 94.3%
SMILES: Nc1nc(=O)c2c([nH]1)NC[C@H](CNc1ccc(C(=O)N[C@@H](CCC(=O)O)C(=O)O)cc1)N2C=O [calcium levofolinate, (6S)-N-[4-[[(2-amino-5-formyl-1,4,5,6,7,8-hexahydro-4-oxo-6-pteridinyl)methyl]amino]benzoyl]-L-glutamic acid]
